Measurements reported in PubChem BioAssay AID2401 (Southern Research Specialized Biocontainment Screening …, 2010).

What follows are molecules tested on S. Typhimurium GFP reporter counter-screen, fluorescence, 4 h (assay: nmpC-GFP reporter counter-screen in S. Typhimurium, dose response, counter-screen for PhoP regulon inhibitor project, Salmonella Typhimurium, GFP fluorescence (AID 2401);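 note: S. typhimurium with Mg-insensitive nmpC-GFP reporter grown at 10 µM Mg2+; drop in reporter fluorescence reflects general culture growth inhibition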).

Compound | IC50
Oc1ccc(/C=N/Nc2nccnc2Cl)c(O)c1 | 35 µM
CN(C)c1ccc(/C=C/c2ccc3ccccc3[n+]2C)cc1 | 19.8 µM
C#CCOCCOCCOCCNc1nc(N2CCN(C(=O)CCCCCCCCCCNC(=O)[C@H]([C@@H](C)CC)n3cc(CCCCN=C(N)N)nn3)CC2)nc(N2CCN(C(=O)CCCCCCCCCCNC(=O)[C@H]([C@@H](C)CC)n3cc(CCCCN=C(N)N)nn3)CC2)n1 | 43.4 µM
CC(C(=O)c1ccc(-c2ccccc2)cc1)[n+]1cccc(NC(=O)c2ccccc2)c1 (centres undefined) | 76.6 µM
C/C(CC(=O)Nc1ccc(Cl)c(C(F)(F)F)c1)=N\NC(=O)c1ccccc1O | 117 µM
O=C(c1cccs1)c1no[n+]([O-])c1C(=O)c1cccs1 | 39.1 µM
O=C(C[n+]1cc(-c2ccc(Cl)c(Cl)c2)n2c1CCC2)N1c2ccccc2Sc2ccccc21 | 49 µM
Cc1cc(C(C)(C)CC(C)(C)C)ccc1OCCOCC[N+](C)(C)Cc1ccccc1 | 26.9 µM
CCCCCCCCn1c2c(c(=N)c3ccccc31)CCC2 | 38.9 µM
CN(C)CCCNc1cc(C(C)(C)C)nc2c(-c3ccccc3)cnn12 | 53.6 µM
Oc1c(CN2CCOCC2)cc(COCc2ccccc2)c2cccnc12 | 69.5 µM
NC1CCN(c2c(F)cc3c(=O)c(C(=O)O)cn(C4CC4)c3c2Cl)C1 (centres undefined) | < 0.23 µM
Cc1cc(C)c(NC(=O)c2cn3c4c(c(N5CCN(C)CC5)c(F)cc4c2=O)OCC3C)c(C)c1 (centres undefined) | 34.2 µM
CCn1cc(C(=O)O)c(=O)c2cc(F)c(N3CCN(C(=S)Nc4ccccc4OC)CC3)cc21 | 38.8 µM
CCn1cc(C(=O)O)c(=O)c2cc3c(cc21)OCO3 | 80.6 µM
C#CCOCCOCCOCCNc1nc(N2CCN(C(=O)CCCCCCCCCCNC(=O)[C@H](CCCN=C(N)N)n3cc(C[C@@H](C)CC)nn3)CC2)nc(N2CCN(C(=O)CCCCCCCCCCNC(=O)[C@@H]([C@H](C)CC)n3cc(CCCCCN)nn3)CC2)n1 | 74.9 µM
O=C(Nc1ccccc1)Nc1ccc(Cl)c([N+](=O)[O-])c1 | 42.4 µM
O=C(NCCNc1ccc([N+](=O)[O-])cc1C(F)(F)F)c1cccc(F)c1 | 106 µM
COc1ccc(OCC(O)CNc2ccc(Br)cc2)cc1 (centres undefined) | 14.3 µM
CCn1cc(C(=O)NCCO)c(=O)c2cc(F)c(N3CCN(C)CC3)cc21 | 42.8 µM

Compound | IC50
CC(C(=O)NC1C=CS(=O)(=O)C1)N1C(=O)/C(=C/c2ccc(Cl)cc2)SC1=S (centres undefined) | 15.4 µM
CNC[C@H](CC1CCCCC1)NC[C@H](Cc1ccccc1)NCCC12CC3CC(CC(C3)C1)C2 | 16.1 µM
CCCCCCCCCCCCCCCCn1cc[n+](CC(C)=O)c1 | 33.9 µM
Nc1ncn([C@@H]2O[C@H](CO)[C@@H](O)[C@H]2O)c(=O)n1 | 33.6 µM
C/C(=N\Nc1nc2ccccc2[nH]1)c1ccccn1 | 22.5 µM
O=C(Oc1c(CN2CCOCC2)cc(Cl)c2cccnc12)c1ccc(F)cc1 | 136 µM
CCCCCCCCCCCCCCCC[n+]1ccc(/C=N/O)cc1 | 28.7 µM
CCc1ccc(S(=O)(=O)/N=C2/C=C(Sc3ncn[nH]3)C(=O)c3ccccc32)cc1 | 76.9 µM
O=Nc1ccc(O)c2ncccc12 | 61.3 µM
O=C(N/N=C/c1ccc([N+](=O)[O-])o1)c1ccc(O)cc1 | 36.8 µM
CN(C)c1ccc(O)c2c1CC1CC3C(N(C)C)C(=O)C(C(N)=O)=C(O)[C@@]3(O)C(=O)C1=C2O (some centres undefined) | 3.97 µM
CCn1cc(C(=O)O)c(=O)c2cc(F)c(N3CCN(C(=S)NC(=O)c4ccccc4)CC3)cc21 | 29.8 µM
CCN(CC)c1ccc(/C=N/Nc2nc3ccccc3[nH]2)c(O)c1 | 33.7 µM
Cc1ccc(C(=O)N/N=C/c2cc(Br)ccc2O)cn1 | 55.7 µM
Oc1cc(Cl)ccc1Oc1ccc(Cl)cc1Cl | 0.49 µM
CC(=O)NC(c1ccc2ccccc2c1)c1ccc2cccnc2c1O (centres undefined) | 100 µM
CCn1cc(C(=O)O)c(=O)c2cc(F)c(N3CCN(C(=S)NC(=O)c4ccc(OC)cc4)CC3)cc21 | 29.4 µM
CN(Cc1ccccc1)CC(O)COc1ccc(CNCc2ccc(Cl)s2)cc1 (centres undefined) | 91.9 µM
O=C(C[n+]1cc(-c2ccc(Cl)cc2)n2c1CCC2)Nc1nc(-c2ccccc2)cs1 | 84 µM
CN(O)/C=c1/ccc2c(n1)C(=O)C=CC=2 | 35 µM

Compound | IC50
CCN(CC)S(=O)(=O)c1cccc(C(=O)N/N=C/c2ccc(O)c(O)c2O)c1 | 98.6 µM
Oc1cccc(/C=N/Nc2ccc(Cl)nn2)c1O | 18.3 µM
CCn1cc(C(=O)O)c(=O)c2cc(F)c(N3CCN(C(=S)Nc4ccc(OC)cc4)CC3)cc21 | 15.3 µM
CC(C(=O)NC1CCS(=O)(=O)C1)N1C(=O)/C(=C/c2ccc(Cl)cc2)SC1=S (centres undefined) | 11.6 µM
CCCCCOc1ccc(Br)cc1CSC(=N)N | 61.1 µM
CC(Cc1ccccc1)NCc1ccccc1O (centres undefined) | 28.2 µM
Nc1nc(F)nc2c1ncn2[C@@H]1O[C@H](CO)[C@@H](O)[C@H]1O | 32.8 µM
CCCCCC(CC(=O)NO)C(=O)NC(C(=O)N1CCCC1CO)C(C)C (centres undefined) | 144 µM
NC1=NC[C@@H](Cc2ccc(O)cc2)N1CCCCC1CCCCC1 | 32.9 µM
CCCCCCCSc1cc(OC)c(CCNC)cc1OC | 39.4 µM
O=C(CSc1nc2ccccc2s1)N/N=C/c1cc([N+](=O)[O-])ccc1O | 88.4 µM
CCCC(=O)NC(c1ccc(C)cc1)c1ccc2cccnc2c1O (centres undefined) | 100 µM
O=C1C=C(O)c2c(O)cc(O)c(O)c2C1=O | 76.8 µM
CN1CCN(c2c(F)cc3c(=O)c(C(=O)O)cn4c3c2OCN4C)CC1 | 0.61 µM
COc1ccc(/C=N/Nc2cc(C)nc3ccccc23)cc1 | 51.7 µM
CCNC(=S)NNC(=O)c1ccccn1 | 36.4 µM
CC1(C)CC(=O)C(C(=O)/C=C/NCCc2ccccc2)C(=O)C1 | 122 µM
CCCCCCCCCCCCCCCCn1cc[n+](C)c1 | 16.3 µM
COc1cc(C)c(Cc2cnc(N)nc2N)cc1OC | 2.03 µM
